Measured values from patent US7648999B2, “Activator for peroxisome proliferator-activated receptor δ” (Nippon Chemiphar Co., Ltd., priority 2007, dated 2010).
Where two headings read alike, the source gives them in different places.

Assays:
Type in all cases: cell-based
PPARγ (GAL4-hPPARγ LBD) = molecular target: T1, PPARγ (GAL4-hPPARγ LBD) (Homo sapiens, UniProt P37231); assay: PPARγ transactivation activity (GAL4 chimera luciferase reporter in CV-1 cells)
T1 construct: Receptor expression plasmid (GAL4-hPPARα, LBD GAL4-hPPARγ LBD, GAL4-hPPARδ LBD); expressed in transfected cells; host or cells: CV-1 cells
T1 sequence (P37231 238-503 limits assumed): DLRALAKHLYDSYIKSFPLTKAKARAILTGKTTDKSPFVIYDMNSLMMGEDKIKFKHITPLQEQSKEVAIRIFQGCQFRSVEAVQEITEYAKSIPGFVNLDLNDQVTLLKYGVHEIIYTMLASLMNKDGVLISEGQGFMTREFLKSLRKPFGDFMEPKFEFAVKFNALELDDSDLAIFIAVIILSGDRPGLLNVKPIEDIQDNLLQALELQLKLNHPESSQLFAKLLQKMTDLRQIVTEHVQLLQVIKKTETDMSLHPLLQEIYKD

PPARα (GAL4-hPPARα LBD) = molecular target: T2, PPARα (GAL4-hPPARα LBD) (Homo sapiens, UniProt Q07869); assay: PPARα transactivation activity (GAL4 chimera luciferase reporter in CV-1 cells)
T2 construct: Receptor expression plasmid (GAL4-hPPARα, LBD GAL4-hPPARγ LBD, GAL4-hPPARδ LBD); expressed in transfected cells; host or cells: CV-1 cells
T2 sequence (Q07869 239-466 limits assumed): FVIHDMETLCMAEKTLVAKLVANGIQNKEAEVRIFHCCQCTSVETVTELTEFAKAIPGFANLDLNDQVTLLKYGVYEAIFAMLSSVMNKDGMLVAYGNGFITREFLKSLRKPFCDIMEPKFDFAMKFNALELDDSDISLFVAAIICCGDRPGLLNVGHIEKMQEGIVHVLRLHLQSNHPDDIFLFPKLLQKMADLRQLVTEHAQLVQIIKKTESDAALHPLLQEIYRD

PPARδ (GAL4-hPPARδ LBD) = molecular target: T3, PPARδ (GAL4-hPPARδ LBD) (Homo sapiens, UniProt Q03181); assay: PPARδ transactivation activity (GAL4 chimera luciferase reporter in CV-1 cells)
T3 construct: A chimeric receptor expression plasmid (GAL4-hPPARδ LBD), a reporter plasmid (UASx4-TK-LUC); expressed in transfected cells; host or cells: CV-1 cells
T3 sequence (Q03181 211-439 limits assumed): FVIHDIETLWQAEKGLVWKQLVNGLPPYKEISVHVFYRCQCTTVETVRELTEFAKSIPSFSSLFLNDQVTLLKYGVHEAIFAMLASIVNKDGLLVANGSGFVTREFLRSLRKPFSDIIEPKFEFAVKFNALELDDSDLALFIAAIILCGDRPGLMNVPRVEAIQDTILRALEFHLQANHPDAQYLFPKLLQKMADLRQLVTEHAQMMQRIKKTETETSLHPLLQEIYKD
Description: A chimeric receptor expression plasmid (GAL4-hPPARδ LBD), a reporter plasmid (UASx4-TK-LUC) and β-galactosidase (β-GAL) are transfected into CV-1 cells by utilizing a lipofection reagent DMRIE-C (Life Technologies).
(1) Measurement of PPARα, γ, δ Transactivation Activity
CV-1 cells were obtained from Tohoku University Aging Medical Laboratory, Medical Cell Collection Center. All test compounds were dissolved in dimethylsulfoxide (DMSO). Final concentration of DMSO was 0.1%.
CV-1 cells were seeded in 24 well culture plates at 2×10^5 cells per well, and cultured for 24 hours OPTI-MEM I Reduced Serum Medium (Life Technologies, 500 μL/well) containing 4%-fetal bovine serum (FBS). After washing with OPTI-MEM, transfection mixture (250 μL/well) containing 0.03 μg of GAL4-hPPARδ LBD, 0.25 μg of UASx-4-TK-LUC, 0.35 μg of βGAL, and 2 μL of lipofection reagent, DMRIE-C (Life Technologies) were added. The cells were incubated for 5 hours at 37° C.
The cells were washed and incubated for 40 hours in the presence of the test compound (final concentration was 10^−7M or 10^−6M)
The culture medium was removed and the cells were washed with PBS twice. A solubilizing buffer (100 μL/well) containing 25 mM Tris-PO4 (pH 7.8), 15% v/v glycerol, 2% CHAPS, 1% Lecithin, 1% BSA, 4 mM EGTA (pH 8.0), 8 mM MgCl2, 1 mM DTT was added. After the incubation for 10 minutes at room temperature, a portion (20 μL) of the solution was transferred into a 96-well plate. Subsequently, 100 μL of luciferase substrate solution (Piccagene: available from Nippon Gene Co., Ltd.) was added, and a luminous intensity per one second (luciferase activity) was measured using a microluminoreader (Type MLR-100, Corona Electrics Co., Ltd.). Each luciferase activity was corrected by the transfection efficiency which was calculated from β-galactosidase activity. The assay method of β-galactosidase activity was as follows: A portion (50 μL) of the solubilized sample was transferred into another 96-well plate; 100 μL of ONPG (2-nitrophenyl-β-galactopyranoside) solution was added and incubated for 5 minutes at room temperature. 50 μL of a reaction stopping solution (1M sodium carbonate solution) was added. Then the absorbance at 414 nm was measured.

[1] = compound at 10^−7 M, CV-1 cells, 40 hours, positive control 10^−5 M Rosiglitazone = 100%
[2] = compound at 10^−7 M, CV-1 cells, 40 hours, positive control 10^−4 M WY-14643 = 100%
[3] = compound at 10^−7 M, CV-1 cells, 40 hours, positive control 10^−4 M L-165041 = 100%
[4] = compound at 10^−7 M (value without parentheses)
[5] = compound at 10^−6 M (value in parentheses)

| Molecule | Relative activity for PPAR transactivation, γ (PPARγ (GAL4-hPPARγ LBD); [4]) | Relative activity for PPAR transactivation, α (PPARα (GAL4-hPPARα LBD); [4]) | Relative activity for PPAR transactivation, δ (PPARδ (GAL4-hPPARδ LBD); [4]) | also measured |
| --- | --- | --- | --- | --- |
| Cc1cc(C(=O)CCc2nc(-c3ccc(Cl)cc3O)oc2C(C)C)ccc1OCC(=O)O [Example 6, [4-[3-[2-(2-Hydroxy-4-chlorophenyl)-5-isopropyl-4-oxazolyl]propionyl]-2-methylphenoxy]acetic acid] | – | – | – | Relative activity for PPAR transactivation, γ (PPARγ (GAL4-hPPARγ LBD); [1]): 6 % of control; Relative activity for PPAR transactivation, α (PPARα (GAL4-hPPARα LBD); [2]): 0 % of control; Relative activity for PPAR transactivation, δ (PPARδ (GAL4-hPPARδ LBD); [3]): 73 % of control |
| CCCCCCc1nc(-c2ccc(C(F)(F)F)cc2)sc1CCC(=O)c1ccc(OC(C)(C)C(=O)O)c(C)c1 [Example 12, 2-[4-[3-[4-Hexyl-2-(4-trifluoromethyl)phenyl-5-thiazolyl]propionyl]-2-methylphenoxy]-2-methylpropionic acid] | 31 % of control | 75 % of control | 45 % of control | – |
| CCc1nc(-c2ccc(C(F)(F)F)cc2)sc1CCC(=O)c1ccc(OC(C)(C)C(=O)O)c(C)c1 [Example 48, 2-[4-[3-[4-Ethyl-2-(4-trifluoromethyl)phenyl-5-thiazolyl]propionyl]-2-methylphenoxy]-2-methylpropionic acid] | – | – | – | Relative activity for PPAR transactivation, γ (PPARγ (GAL4-hPPARγ LBD); [5]): (13) % of control; Relative activity for PPAR transactivation, α (PPARα (GAL4-hPPARα LBD); [5]): (84) % of control; Relative activity for PPAR transactivation, δ (PPARδ (GAL4-hPPARδ LBD); [5]): (51) % of control |
| Cc1cc(C=CCc2sc(-c3ccc(C(F)(F)F)cc3)nc2C(C)C)ccc1OC(C)(C)C(=O)O [Example 13, 2-[4-[3-[4-Isopropyl-2-(4-trifluoromethyl)phenyl-5-thiazolyl]-1-propenyl]-2-methylphenoxy]-2-methylpropionic acid] | 17 % of control | 63 % of control | 62 % of control | – |
| Cc1cc(C(=O)C=Cc2sc(-c3ccc(C(F)(F)F)cc3)nc2C(C)C)ccc1OC(C)(C)C(=O)O [Example 25, 2-[4-[3-[4-Isopropyl-2-(4-trifluoromethyl)phenyl-5-thiazolyl]propenoyl]-2-methylphenoxy]-2-methylpropionic acid] | – | – | 61 % of control | – |
| Cc1cc(C(=O)CCc2sc(-c3ccc(C(F)(F)F)cc3)nc2C(C)C)ccc1OCC(=O)O [Example 3, [4-[3-[2-(4-Trifluoromethyl)phenyl-4-isopropyl-5-thiazolyl]propionyl]-2-methylphenoxy]acetic acid] | – | – | – | Relative activity for PPAR transactivation, γ (PPARγ (GAL4-hPPARγ LBD); [1]): 5 % of control; Relative activity for PPAR transactivation, α (PPARα (GAL4-hPPARα LBD); [2]): 0 % of control; Relative activity for PPAR transactivation, δ (PPARδ (GAL4-hPPARδ LBD); [3]): 101 % of control |
| Cc1cc(C(=O)CCc2nc(-c3ccc(C(F)(F)F)cc3)sc2C(C)C)ccc1OC(C)(C)C(=O)O [Example 38, 2-[4-[3-[5-Isopropyl-2-(4-trifluoromethyl)phenyl-4-thiazolyl]propionyl]-2-methylphenoxy]-2-methylpropionic acid] | – | – | – | Relative activity for PPAR transactivation, γ (PPARγ (GAL4-hPPARγ LBD); [5]): (9) % of control; Relative activity for PPAR transactivation, α (PPARα (GAL4-hPPARα LBD); [5]): (3) % of control; Relative activity for PPAR transactivation, δ (PPARδ (GAL4-hPPARδ LBD); [5]): (69) % of control |
| CCCc1cc(C(=O)CCc2sc(-c3ccc(C(F)(F)F)cc3)nc2C(C)C)ccc1OCC(=O)O [Example 18, [4-[3-[4-Isopropyl-2-(4-trifluoromethyl)phenyl-5-thiazolyl]propionyl]-2-propylphenoxy]acetic acid] | 1 % of control | 0 % of control | 70 % of control | – |
| CCCCCCc1nc(-c2ccc(C(F)(F)F)cc2)sc1CCC(=O)c1ccc(OCC(=O)O)c(C)c1 [Example 11, [4-[3-[4-Hexyl-2-(4-trifluoromethyl)phenyl-5-thiazolyl]propionyl]-2-methylphenoxy]acetic acid] | 1 % of control | 0 % of control | 56 % of control | – |
| CC(C)c1nc(-c2ccc(C(F)(F)F)cc2)sc1CCC(=O)c1ccc(OC(C)(C)C(=O)O)c(Cl)c1 [Example 34, [4-[3-[2-(4-Trifluoromethyl)phenyl-4-isopropyl-5-thiazolyl]propionyl]-2-chlorophenoxy]-2-methylpropionic acid] | 3 % of control | 5 % of control | 66 % of control | – |
| [4-[3-[4-Isopropyl-2-(4-methoxyphenyl)-5-thiazolyl]propionyl]-2-methylphenoxy]propionic acid [Example 26] | – | – | 18 % of control | – |
| Cc1ccc(C(=O)CCc2sc(-c3ccc(C(F)(F)F)cc3)nc2C(C)C)cc1OC(C)(C)C(=O)O [Example 42, 2-[5-[3-[4-Isopropyl-2-(4-trifluoromethyl)phenyl-5-thiazolyl]propionyl]-2-methylphenoxy]-2-methylpropionic acid] | – | – | – | Relative activity for PPAR transactivation, γ (PPARγ (GAL4-hPPARγ LBD); [5]): (55) % of control; Relative activity for PPAR transactivation, α (PPARα (GAL4-hPPARα LBD); [5]): (68) % of control |
| Cc1ccc(C(=O)CCc2sc(-c3ccc(C(F)(F)F)cc3)nc2C(C)C)cc1OCC(=O)O [Example 41, [5-[3-[4-Isopropyl-2-(4-trifluoromethyl)phenyl-5-thiazolyl]propionyl]-2-methylphenoxy]acetic acid] | – | – | – | Relative activity for PPAR transactivation, γ (PPARγ (GAL4-hPPARγ LBD); [5]): (60) % of control; Relative activity for PPAR transactivation, α (PPARα (GAL4-hPPARα LBD); [5]): (5) % of control |
| Cc1cc(C(=O)CCc2nc(-c3ccc(C(F)(F)F)cc3)sc2C(C)C)ccc1OCC(=O)O [Example 37, [4-[3-[5-Isopropyl-2-(4-trifluoromethyl)phenyl-4-thiazolyl]propionyl]-2-methylphenoxy]acetic acid] | – | – | – | Relative activity for PPAR transactivation, δ (PPARδ (GAL4-hPPARδ LBD)): (71) % of control |

Further lines, with some results ahead:

| Relative activity for PPAR transactivation, γ (PPARγ (GAL4-hPPARγ LBD); [4]) | Relative activity for PPAR transactivation, α (PPARα (GAL4-hPPARα LBD); [4]) | Relative activity for PPAR transactivation, δ (PPARδ (GAL4-hPPARδ LBD); [4]) | Molecule | also measured |
| --- | --- | --- | --- | --- |
| 0 % of control | 0 % of control | 57 % of control | CCc1nc(-c2ccc(C(F)(F)F)cc2)sc1CCC(=O)c1ccc(OCC(=O)O)c(C)c1 [Example 47, [4-[3-[4-Ethyl-2-(4-trifluoromethyl)phenyl-5-thiazolyl]propionyl]-2-methylphenoxy]acetic acid] | – |
| 20 % of control | 90 % of control | 49 % of control | CCCCCCc1nc(-c2ccc(C(F)(F)F)cc2)sc1CC=Cc1ccc(OC(C)(C)C(=O)O)c(C)c1 [Example 45, 2-[4-[3-[4-Hexyl-2-(4-trifluoromethyl)phenyl-5-thiazolyl]-1-propenyl]-2-methylphenoxy]-2-methylpropionic acid] | – |
| 5 % of control | 3 % of control | 42 % of control | Cc1cc(C(=O)CCc2sc(-c3ccc(C(F)(F)F)cc3)nc2C(C)C)ccc1OC(C)C(=O)O (stereo not shown) [Example 43, 2-[4-[3-[4-Isopropyl-2-(4-trifluoromethyl)phenyl-5-thiazolyl]propionyl]-2-methylphenoxy]propionic acid] | – |
